We go through five compounds from ChEMBL document CHEMBL2074404, “Regulation of multidrug resistance-associated protein 2 (ABCC2) by the nuclear receptors pregnane X receptor, farnesoid X-activated receptor, and constitutive androstane receptor” (J Biol Chem, 2002).

The target in data set [1] is T1, ATP-binding cassette sub-family C member 2 (Homo sapiens, UniProt Q92887). The experiment in a line: TP_TRANSPORTER: Northern blot from HepG2 cells. Format: functional, cell-based.
Data set [2] concerns the target ATP-binding cassette sub-family C member 2 (Rattus norvegicus, UniProt Q63120). In words: (§1) TP_TRANSPORTER: Northern blot in vitro, primary hepatocytes. Format: functional, cell-based, Hepatocyte.
Data set [3] deals with T2, Bile salt export pump (Rattus norvegicus, UniProt O70127).
T2 sequence (O70127 whole entry): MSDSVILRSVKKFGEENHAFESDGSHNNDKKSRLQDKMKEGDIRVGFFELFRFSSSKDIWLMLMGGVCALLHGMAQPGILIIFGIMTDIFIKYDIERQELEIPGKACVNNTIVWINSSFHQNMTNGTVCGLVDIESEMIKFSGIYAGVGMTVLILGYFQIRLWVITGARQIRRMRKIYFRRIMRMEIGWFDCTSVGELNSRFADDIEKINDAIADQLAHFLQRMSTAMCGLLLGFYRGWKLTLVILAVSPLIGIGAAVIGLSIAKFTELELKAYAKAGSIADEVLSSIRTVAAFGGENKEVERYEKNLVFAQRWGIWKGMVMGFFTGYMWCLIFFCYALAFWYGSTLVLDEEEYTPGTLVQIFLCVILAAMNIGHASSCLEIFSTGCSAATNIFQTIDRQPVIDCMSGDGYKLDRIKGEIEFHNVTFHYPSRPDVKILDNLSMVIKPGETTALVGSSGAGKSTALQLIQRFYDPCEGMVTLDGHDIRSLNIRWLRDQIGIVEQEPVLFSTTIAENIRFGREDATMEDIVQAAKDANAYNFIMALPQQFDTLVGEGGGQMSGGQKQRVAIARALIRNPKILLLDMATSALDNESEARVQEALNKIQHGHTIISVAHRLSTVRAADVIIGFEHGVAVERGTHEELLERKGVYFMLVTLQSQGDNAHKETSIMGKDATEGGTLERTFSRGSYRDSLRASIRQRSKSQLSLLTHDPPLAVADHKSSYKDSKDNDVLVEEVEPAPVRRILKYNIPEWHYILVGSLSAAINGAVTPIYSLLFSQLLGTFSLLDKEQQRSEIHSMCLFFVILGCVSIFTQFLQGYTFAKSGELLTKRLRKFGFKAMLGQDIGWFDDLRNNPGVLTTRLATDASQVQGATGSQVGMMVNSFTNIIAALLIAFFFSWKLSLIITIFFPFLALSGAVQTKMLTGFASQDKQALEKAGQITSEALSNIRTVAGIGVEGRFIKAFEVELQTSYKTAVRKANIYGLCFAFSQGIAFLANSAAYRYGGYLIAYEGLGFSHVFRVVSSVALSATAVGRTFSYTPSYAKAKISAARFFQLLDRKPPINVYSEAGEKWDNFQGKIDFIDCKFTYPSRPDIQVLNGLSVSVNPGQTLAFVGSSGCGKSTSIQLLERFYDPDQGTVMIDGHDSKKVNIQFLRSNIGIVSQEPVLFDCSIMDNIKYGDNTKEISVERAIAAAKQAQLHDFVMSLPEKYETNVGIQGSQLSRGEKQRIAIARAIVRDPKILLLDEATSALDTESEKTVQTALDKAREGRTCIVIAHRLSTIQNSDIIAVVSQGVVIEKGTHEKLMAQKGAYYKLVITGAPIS
The description is as §1. It counts as functional, cell-based, Hepatocyte.

In data set [4] the target is ATP-binding cassette sub-family C member 2 (Mus musculus, UniProt Q8VI47). The data set is described as §1. Format: functional, cell-based, Hepatocyte.
For data set [5], the target named is T1, ATP-binding cassette sub-family C member 2. The description is as §1. It counts as functional, cell-based, Hepatocyte.

Each structure is given as a SMILES string.

T1 sequence (Q92887 whole entry): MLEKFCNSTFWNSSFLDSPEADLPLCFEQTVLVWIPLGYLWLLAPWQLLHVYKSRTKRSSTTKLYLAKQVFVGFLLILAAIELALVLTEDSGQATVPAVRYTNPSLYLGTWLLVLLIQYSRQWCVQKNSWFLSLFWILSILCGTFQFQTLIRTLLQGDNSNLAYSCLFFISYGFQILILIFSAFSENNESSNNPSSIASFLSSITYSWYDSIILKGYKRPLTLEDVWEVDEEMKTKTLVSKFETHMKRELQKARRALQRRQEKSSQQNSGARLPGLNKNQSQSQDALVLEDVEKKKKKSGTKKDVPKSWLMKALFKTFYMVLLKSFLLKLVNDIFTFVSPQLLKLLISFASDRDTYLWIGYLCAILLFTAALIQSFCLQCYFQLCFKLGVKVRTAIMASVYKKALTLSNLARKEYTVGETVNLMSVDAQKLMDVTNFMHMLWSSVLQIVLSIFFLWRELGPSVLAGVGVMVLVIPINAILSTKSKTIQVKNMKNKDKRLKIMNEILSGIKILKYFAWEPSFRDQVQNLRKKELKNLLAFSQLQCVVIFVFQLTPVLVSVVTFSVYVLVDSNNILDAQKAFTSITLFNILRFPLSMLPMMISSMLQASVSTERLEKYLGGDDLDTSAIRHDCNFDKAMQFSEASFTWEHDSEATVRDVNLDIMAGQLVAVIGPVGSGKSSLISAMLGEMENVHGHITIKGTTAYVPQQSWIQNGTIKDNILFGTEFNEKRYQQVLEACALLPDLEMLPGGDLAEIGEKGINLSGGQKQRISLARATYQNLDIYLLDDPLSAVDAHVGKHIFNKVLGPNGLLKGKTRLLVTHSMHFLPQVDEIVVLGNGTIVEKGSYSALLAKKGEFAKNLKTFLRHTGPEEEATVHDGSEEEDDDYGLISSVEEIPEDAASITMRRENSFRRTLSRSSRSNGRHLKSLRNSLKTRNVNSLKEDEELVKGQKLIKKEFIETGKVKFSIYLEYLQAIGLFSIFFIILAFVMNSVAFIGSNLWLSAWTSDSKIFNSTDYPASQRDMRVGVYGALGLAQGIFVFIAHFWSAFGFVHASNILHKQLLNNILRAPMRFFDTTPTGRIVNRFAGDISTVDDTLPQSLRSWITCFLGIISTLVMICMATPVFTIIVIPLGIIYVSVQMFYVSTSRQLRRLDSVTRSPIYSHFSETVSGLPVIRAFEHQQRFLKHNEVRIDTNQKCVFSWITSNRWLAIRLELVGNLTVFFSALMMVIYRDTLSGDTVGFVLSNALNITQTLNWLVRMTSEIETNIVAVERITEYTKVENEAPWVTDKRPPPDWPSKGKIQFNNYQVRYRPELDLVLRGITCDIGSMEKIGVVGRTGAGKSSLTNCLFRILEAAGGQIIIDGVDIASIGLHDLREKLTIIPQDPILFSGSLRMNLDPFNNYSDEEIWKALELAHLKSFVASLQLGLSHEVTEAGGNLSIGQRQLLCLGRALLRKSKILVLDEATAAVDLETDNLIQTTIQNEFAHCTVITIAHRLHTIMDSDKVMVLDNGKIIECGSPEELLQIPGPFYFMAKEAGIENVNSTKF
ATP-binding cassette sub-family C member 2 (Rattus norvegicus, UniProt Q63120), sequence (Q63120 whole entry): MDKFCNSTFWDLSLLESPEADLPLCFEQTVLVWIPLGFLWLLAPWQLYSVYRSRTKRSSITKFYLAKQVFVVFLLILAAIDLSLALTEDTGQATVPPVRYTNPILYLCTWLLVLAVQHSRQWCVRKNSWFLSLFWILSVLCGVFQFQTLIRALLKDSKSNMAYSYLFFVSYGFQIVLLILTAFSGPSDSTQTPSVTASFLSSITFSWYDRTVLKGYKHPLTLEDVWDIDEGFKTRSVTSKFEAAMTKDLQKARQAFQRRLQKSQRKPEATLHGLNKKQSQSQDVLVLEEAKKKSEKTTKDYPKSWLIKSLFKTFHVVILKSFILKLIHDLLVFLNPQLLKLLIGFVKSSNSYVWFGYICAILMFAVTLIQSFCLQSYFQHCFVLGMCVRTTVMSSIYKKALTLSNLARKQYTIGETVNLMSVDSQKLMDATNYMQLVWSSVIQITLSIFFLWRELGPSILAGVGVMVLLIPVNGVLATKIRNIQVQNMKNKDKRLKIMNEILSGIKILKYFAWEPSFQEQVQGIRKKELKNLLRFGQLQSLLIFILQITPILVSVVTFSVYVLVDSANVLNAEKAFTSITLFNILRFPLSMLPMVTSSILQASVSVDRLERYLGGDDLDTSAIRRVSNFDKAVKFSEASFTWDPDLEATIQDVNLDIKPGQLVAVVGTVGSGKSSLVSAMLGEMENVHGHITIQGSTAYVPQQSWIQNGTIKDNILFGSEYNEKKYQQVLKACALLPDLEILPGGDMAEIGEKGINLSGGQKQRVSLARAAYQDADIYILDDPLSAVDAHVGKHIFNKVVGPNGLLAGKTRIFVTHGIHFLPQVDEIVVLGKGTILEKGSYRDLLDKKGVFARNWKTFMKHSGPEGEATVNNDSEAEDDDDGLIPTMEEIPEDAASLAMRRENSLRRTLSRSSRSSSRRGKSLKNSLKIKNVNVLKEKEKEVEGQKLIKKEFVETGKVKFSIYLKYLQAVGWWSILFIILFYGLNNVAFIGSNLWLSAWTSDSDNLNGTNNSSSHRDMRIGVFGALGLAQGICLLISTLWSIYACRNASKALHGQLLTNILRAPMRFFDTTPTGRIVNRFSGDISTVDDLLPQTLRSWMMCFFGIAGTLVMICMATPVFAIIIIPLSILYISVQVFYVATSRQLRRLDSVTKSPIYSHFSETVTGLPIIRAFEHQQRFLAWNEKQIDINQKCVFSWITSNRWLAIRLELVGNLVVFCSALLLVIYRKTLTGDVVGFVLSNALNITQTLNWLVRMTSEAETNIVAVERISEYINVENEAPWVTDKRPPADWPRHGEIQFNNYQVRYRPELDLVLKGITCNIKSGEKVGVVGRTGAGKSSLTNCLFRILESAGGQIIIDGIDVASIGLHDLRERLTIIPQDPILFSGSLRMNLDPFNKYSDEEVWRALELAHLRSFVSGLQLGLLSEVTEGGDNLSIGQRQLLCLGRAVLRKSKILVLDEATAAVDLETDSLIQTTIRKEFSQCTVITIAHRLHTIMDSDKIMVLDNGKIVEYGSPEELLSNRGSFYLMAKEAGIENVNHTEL
ATP-binding cassette sub-family C member 2 (Mus musculus, UniProt Q8VI47), sequence (Q8VI47 whole entry): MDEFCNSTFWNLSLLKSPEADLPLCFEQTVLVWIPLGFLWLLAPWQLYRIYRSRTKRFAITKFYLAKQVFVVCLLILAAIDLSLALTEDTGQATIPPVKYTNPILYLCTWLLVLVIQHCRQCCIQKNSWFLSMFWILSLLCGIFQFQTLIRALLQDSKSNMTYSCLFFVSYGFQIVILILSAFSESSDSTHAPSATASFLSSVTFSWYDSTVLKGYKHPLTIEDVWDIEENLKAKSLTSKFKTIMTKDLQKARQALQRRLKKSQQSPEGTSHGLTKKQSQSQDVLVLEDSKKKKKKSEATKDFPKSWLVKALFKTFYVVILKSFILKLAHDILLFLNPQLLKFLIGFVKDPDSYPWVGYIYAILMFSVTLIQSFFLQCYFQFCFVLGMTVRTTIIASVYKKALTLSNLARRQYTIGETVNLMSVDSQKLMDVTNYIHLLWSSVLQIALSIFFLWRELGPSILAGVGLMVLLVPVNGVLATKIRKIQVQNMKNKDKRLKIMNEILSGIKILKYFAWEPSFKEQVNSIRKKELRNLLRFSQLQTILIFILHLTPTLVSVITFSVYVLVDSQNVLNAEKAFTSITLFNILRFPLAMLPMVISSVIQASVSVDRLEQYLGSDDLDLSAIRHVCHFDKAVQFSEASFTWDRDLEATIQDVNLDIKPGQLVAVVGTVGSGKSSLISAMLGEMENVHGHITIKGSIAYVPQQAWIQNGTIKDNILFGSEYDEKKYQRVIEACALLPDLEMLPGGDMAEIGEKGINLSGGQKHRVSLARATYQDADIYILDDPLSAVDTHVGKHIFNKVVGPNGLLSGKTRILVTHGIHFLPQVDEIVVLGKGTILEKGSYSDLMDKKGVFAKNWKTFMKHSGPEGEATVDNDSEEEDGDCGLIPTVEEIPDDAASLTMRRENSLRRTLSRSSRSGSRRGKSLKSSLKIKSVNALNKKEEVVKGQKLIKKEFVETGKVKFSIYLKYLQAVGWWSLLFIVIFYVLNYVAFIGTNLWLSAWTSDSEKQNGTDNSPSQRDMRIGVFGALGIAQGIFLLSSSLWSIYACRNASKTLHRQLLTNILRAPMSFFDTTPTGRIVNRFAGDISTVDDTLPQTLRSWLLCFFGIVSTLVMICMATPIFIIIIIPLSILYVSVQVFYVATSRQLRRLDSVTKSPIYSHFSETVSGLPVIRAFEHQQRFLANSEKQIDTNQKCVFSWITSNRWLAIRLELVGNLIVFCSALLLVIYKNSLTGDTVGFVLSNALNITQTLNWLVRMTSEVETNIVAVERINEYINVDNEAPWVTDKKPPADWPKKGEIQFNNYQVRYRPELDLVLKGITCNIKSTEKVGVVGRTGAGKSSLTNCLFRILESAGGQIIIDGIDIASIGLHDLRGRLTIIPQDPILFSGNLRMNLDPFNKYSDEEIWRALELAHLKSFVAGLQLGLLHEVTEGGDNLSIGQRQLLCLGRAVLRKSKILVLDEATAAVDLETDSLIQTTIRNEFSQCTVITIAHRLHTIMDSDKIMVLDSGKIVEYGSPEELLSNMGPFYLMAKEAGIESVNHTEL

On to `C[C@H](CCC(=O)O)[C@H]1CC[C@H]2[C@@H]3[C@H](O)C[C@@H]4C[C@H](O)CC[C@]4(C)[C@H]3CC[C@]12C` [CHENODIOL], for which the Activity result in data set [1] was “inducer [+]”.
Regarding `CC(C)c1onc(-c2c(Cl)cccc2Cl)c1COc1ccc(/C=C/c2cccc(C(=O)O)c2)c(Cl)c1`, the Activity entry in data set [1], in data set [2] and in data set [3] was “inducer [+]” each time.
For the compound `CCC1(c2ccccc2)C(=O)NC(=O)NC1=O` [PHENOBARBITAL], the Activity entry in data set [4] and in data set [3] was “inducer [+]” each time.
Regarding `CC(C)=CCC[C@]1(C)[C@@H](CC=C(C)C)C[C@]2(CC=C(C)C)C(=O)C(CC=C(C)C)=C(O)[C@@]1(C(=O)C(C)C)C2=O`, in data set [5], the Activity entry was “inducer [+]”.
For the compound `CC(=O)[C@H]1[C@H](C#N)C[C@H]2[C@@H]3CC=C4C[C@@H](O)CC[C@]4(C)[C@H]3CC[C@@]21C` [PREGNENOLONE CARBONITRILE], the Activity entry in data set [4], in data set [2] and in data set [3] was “inducer [+]” each time.
